Results on two molecules are retold here after ChEMBL document CHEMBL4308854, “Novel indole-thiazolidinone conjugates: Design, synthesis and whole-cell phenotypic evaluation as a novel class of antimicrobial agents” (Eur J Med Chem, 2018).

In brackets after ≈: the same amount, converted by molar mass.

Data set [1] deals with NCI-H322M. The data set can be described thus: Growth inhibition of human NCI-H322M cells assessed as cell growth at 10^-5 M incubated for 48 hrs by sulforhodamine B assay relative to control. Set-up: scale not given: the % may be the effect or the level left. As to conditions: 10 µM. In kind it is cell-based.
For data set [2], the system named is Candida albicans. The data set can be described thus: Antifungal activity against Candida albicans RCMB 05036 after 24 hrs by serial dilution method. In kind it is functional. As to conditions: RCMB 05036, 24 h.
In data set [3] the test system is Escherichia coli. The data set can be described thus: Potency index, ratio of ciprofloxacin MIC to compound MIC for Escherichia coli RCMB 010052. The class given is functional.
The subject of data set [4] is HCC 2998. The data set can be described thus: Growth inhibition of human HCC2998 cells assessed as cell growth at 10^-5 M incubated for 48 hrs by sulforhodamine B assay relative to control. The class given is cell-based. Details: scale not given: the % may be the effect or the level left. The conditions noted are these: hcc 2998, 48 h, 10 µM.
The nature of data set [5]: Stability in mouse RAW264.7 cells measured after 48 hrs. In kind it is ADME, cell-based. As to conditions: raw264.7, 48 h.
In data set [6] the test system is OVCAR-3. The data set can be described thus: Growth inhibition of human OVCAR3 cells assessed as cell growth at 10^-5 M incubated for 48 hrs by sulforhodamine B assay relative to control. In kind it is cell-based. Set-up: scale not given: the % may be the effect or the level left. As to conditions: ovcar-3, 48 h, 10 µM.
Data set [7] concerns NCI-H23. The data set can be described thus: Growth inhibition of human NCI-H23 cells assessed as cell growth at 10^-5 M incubated for 48 hrs by sulforhodamine B assay relative to control. As to conditions: nci-h23, 48 h, 10 µM. In kind it is cell-based. Set-up: scale not given: the % may be the effect or the level left.
Data set [8] has as its system Aspergillus fumigatus. The data set can be described thus: Potency index, ratio of amphotericin B MIC to compound MIC for antifungal activity against Aspergillus fumigatus RCMB 02568. In kind it is functional.
In data set [9] the test system is Staphylococcus aureus. The data set can be described thus: Antibacterial activity against methicillin-resistant Staphylococcus aureus ATCC 33592 after 24 hrs by serial dilution method. In kind it is functional. As to conditions: ATCC 33592, 24 h.
In data set [10] the test system is Aspergillus fumigatus. The data set can be described thus: Potency index, ratio of amphotericin B MIC to compound MIC for Aspergillus fumigatus RCMB 02568. In kind it is functional.
Data set [11] has as its system Enterococcus faecium. The data set can be described thus: Antibacterial activity against vancomycin-resistant Enterococcus faecium ATCC 700221 after 24 hrs by serial dilution method. In kind it is functional. The conditions noted are these: ATCC 700221, 24 h.

As for `CCOC(=O)c1sc(/N=C2\NC(=O)/C(=C3/C(=O)N(Cc4ccccc4)c4ccc(Cl)cc43)S2)nc1C`, the Activity in data set [1] is recorded as 111.22%; in data set [4] it was 109.14%; in data set [6], 105.46%; in [7], 96.32%. In addition, in data set [2], the MIC was 1.95 µg/mL (≈ 3.62 µM). In [3], the Ratio is recorded as 2. Further, the Stability entry in [5] is “Stable”.
Regarding `CC(=O)c1sc(/N=C2\NC(=O)/C(=C3/C(=O)N(C)c4ccc(Cl)cc43)S2)nc1C`, the Activity in [1] is reported as 96.29%; in data set [4], 112.5%; in data set [6] it was 96.17%; in [7], 96.3%. Also, the figures for the MIC in data set [2], in [9] and in data set [11] were 0.49 µg/mL (≈ 1.13 µM), 3.9 µg/mL (≈ 9.01 µM) and 7.81 µg/mL (≈ 18 µM), respectively. The Ratio stood at 4 in data set [3], 2 in data set [8] and 2 in [10]. The Stability entry in data set [5] was “Stable”.
